Experiment [1] addresses T1, pEGFR, NCI-H1975 cells (L858R/T790M EGFR) (Homo sapiens, UniProt P00533, L858R/T790M).
T1 construct: pEGFR (Tyr1068) TR-FRET
Briefly: Cellular EGFR phosphorylation assay (LANCE Ultra TR-FRET) in NCI-H1975 cells. It is filed as cell-based. Conditions: 4 hours at 37° C., read-out: H1975 pEGFR IC50. The procedure, abridged:
(§1)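 Cells were treated with compound for 4 h at 37 °C as a 9-point, 3-fold titration; A431 cells were stimulated with 40 ng/mL EGF for the final 10 min. Phospho-EGFR (Tyr1068) in lysates was read by TR-FRET after 4-6 h antibody incubation, and IC50 values were fitted.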
On the technique in general: Time-resolved FRET reads energy transfer from a long-lived donor to a nearby acceptor.

Experiment [2] deals with EGFR (L858R/T790M/C797S) (Homo sapiens, UniProt P00533, C797S/L858R/T790M). Briefly: HotSpot radiometric kinase assay, inhibition of EGFR L858R/T790M/C797S mutant. The class given is biochemical. The following applies: 33P ATP, room temperature, 120 m. The procedure, abridged: (§2)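 Radiometric filter-binding format: ATP plus 33P-ATP ([…]) was added about 20 min after compound to kinase and substrate in HEPES pH 7.5 buffer with Mg2+, EGTA, Brij35, BSA, vanadate, DTT and 1% DMSO. After 120 min at room temperature, reactions were spotted on P81 paper and washed in phosphoric acid; IC50 values fitted.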

In experiment [3] the target is T2, pEGFR, A431 cells (wildtype EGFR) (Homo sapiens, UniProt P00533).
T2 construct: pEGFR (Tyr1068) TR-FRET
Briefly: Cellular EGFR phosphorylation assay (LANCE Ultra TR-FRET) in A431 cells. It is filed as cell-based. Conditions: 4 hours at 37° C., 40 ng/mL EGF for the final 10 minutes, read-out: A431 pEGFR IC50. The procedure, abridged:
as §1

For experiment [4], the target named is EGFR (D746-750/C797S) (Homo sapiens, UniProt P00533, C797S/DEL746-750). Briefly: HotSpot radiometric kinase assay, inhibition of EGFR 746-750/C797S mutant. The class given is biochemical. The following applies: 33P ATP, room temperature, 120 m. The procedure, abridged:
as §2

Experiment [5] has as its target T3, pEGFR, PC-9 cells (d746-750 EGFR) (Homo sapiens, UniProt P00533, DEL746-750).
T3 construct: pEGFR (Tyr1068) TR-FRET
Put plainly: Cellular EGFR phosphorylation assay (LANCE Ultra TR-FRET) in PC-9 cells. It is filed as cell-based. The following applies: 4 hours at 37° C., read-out: PC-9 pEGFR IC50. The procedure, abridged:
as §1

Experiment [6] deals with EGFR (L858R/T790M) (Homo sapiens, UniProt P00533, L858R/T790M). Put plainly: HotSpot radiometric kinase assay, inhibition of EGFR L858R/T790M mutant. The class given is biochemical. The following applies: 33P ATP, room temperature, 120 m. The procedure, abridged: as §2
The target in experiment [7] is EGFR (L858R) (Homo sapiens, UniProt P00533, L858R). Briefly: HotSpot radiometric kinase assay, inhibition of EGFR L858R mutant. It is filed as biochemical. Conditions: 33P ATP, room temperature, 120 m. The procedure, abridged:
as §2

For experiment [8], the target named is EGFR (D746-750) (Homo sapiens, UniProt P00533, DEL746-750). Put plainly: HotSpot radiometric kinase assay, inhibition of EGFR 746-750 mutant. The class given is biochemical. The following applies: 33P ATP, room temperature, 120 m. The procedure, abridged: as §2
The subject of experiment [9] is HCC827 cells. Put plainly: 5-Day CellTiter Glo (CTG) cell proliferation assay, HCC827. The class given is cell-based. Conditions: Homo sapiens; HCC827 cells (d746-750 EGFR), 5-day CTG proliferation, 120 hours; read-out: HCC827 IC50. The procedure, abridged: (§3)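 Proliferation of EGFR-driven NSCLC cells was scored as CellTiter-Glo 2.0 luminescence after a 5-day (120 h) incubation with compounds in 9 doses. IC50 values came from the dose-response curves.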
Background: In ATP-based viability assays light output follows the ATP content of the culture.

The test system of experiment [10] is BaF3 cells with engineered EGFR L858R/C797S. Put plainly: 3-Day CellTiter Glo (CTG) cell proliferation assay, BaF3 EGFR L858R/C797S. It is filed as cell-based. The following applies: Mus musculus, 3-day CTG proliferation, 72 hours. The procedure, abridged:
(§4)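 Luminescent ATP read-out (CellTiter-Glo 2.0) after 72 h compound exposure gives IC50 values. BaF3 transgenic cells, one thousand per well, received a nine-dose series and were kept at 37 °C under 5% CO2.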

The target of experiment [11] is EGFR (D770_N771insNPG) (Homo sapiens, UniProt P00533, INS770NPG). Put plainly: HotSpot radiometric kinase assay, inhibition of EGFR (D770_N771insNPG) mutant. The class given is biochemical. The following applies: 33P ATP, room temperature, 120 m. The procedure, abridged:
as §2

In experiment [12] the test system is PC-9 cells. Briefly: 5-Day CellTiter Glo (CTG) cell proliferation assay, PC-9. It is filed as cell-based. Conditions: Homo sapiens; PC-9 cells (d746-750 EGFR), 5-day CTG proliferation, 120 hours; read-out: PC-9 IC50. The procedure, abridged:
as §3

In experiment [13] the test system is NCI-H1975 cells. Briefly: 5-Day CellTiter Glo (CTG) cell proliferation assay, NCI-H1975. The class given is cell-based. Conditions: Homo sapiens; NCI-H1975 cells (L858R/T790M EGFR), 5-day CTG proliferation, 120 hours; read-out: H1975 IC50. The procedure, abridged:
as §3

The target of experiment [14] is EGFR WT (Homo sapiens, UniProt P00533). Put plainly: HotSpot radiometric kinase assay, inhibition of EGFR WT. The class given is biochemical. The following applies: 33P ATP, room temperature, 120 m. The procedure, abridged: as §2
The test system of experiment [15] is BaF3 cells with engineered EGFR d746-750/T790M. Briefly: 3-Day CellTiter Glo (CTG) cell proliferation assay, BaF3 EGFR d746-750/T790M. Conditions: Mus musculus; BaF3 EGFR d746-750/T790M cells, 3-day CTG proliferation, 72 hours. It is filed as cell-based. The procedure, abridged: as §4
Experiment [16] has as its system BaF3 cells with engineered EGFR L858R/T790M/C797S. Put plainly: 3-Day CellTiter Glo (CTG) cell proliferation assay, BaF3 EGFR L858R/T790M/C797S. It is filed as cell-based. The following applies: Mus musculus, 3-day CTG proliferation, 72 hours. The procedure, abridged:
as §4

For orientation: IC50 means the midpoint of a concentration-inhibition curve.

EGFR (D770_N771insNPG), sequence (P00533 with tags, fused parts or gaps INS770NPG limits assumed): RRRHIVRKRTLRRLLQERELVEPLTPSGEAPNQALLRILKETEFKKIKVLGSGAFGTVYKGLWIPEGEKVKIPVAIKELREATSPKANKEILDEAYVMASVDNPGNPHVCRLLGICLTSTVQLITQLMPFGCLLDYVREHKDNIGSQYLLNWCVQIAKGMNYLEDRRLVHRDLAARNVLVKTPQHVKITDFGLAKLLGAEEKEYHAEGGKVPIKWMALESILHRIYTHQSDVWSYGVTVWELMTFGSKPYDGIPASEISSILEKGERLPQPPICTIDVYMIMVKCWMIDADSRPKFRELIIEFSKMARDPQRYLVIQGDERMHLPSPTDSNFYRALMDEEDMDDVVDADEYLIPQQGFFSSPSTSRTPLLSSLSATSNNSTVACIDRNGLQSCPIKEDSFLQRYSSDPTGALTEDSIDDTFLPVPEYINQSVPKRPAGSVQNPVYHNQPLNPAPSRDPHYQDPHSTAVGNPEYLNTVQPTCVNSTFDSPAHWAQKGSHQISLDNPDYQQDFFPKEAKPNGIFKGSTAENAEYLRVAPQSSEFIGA
EGFR (D746-750/C797S), sequence (P00533 with tags, fused parts or gaps DEL746-750/C797S): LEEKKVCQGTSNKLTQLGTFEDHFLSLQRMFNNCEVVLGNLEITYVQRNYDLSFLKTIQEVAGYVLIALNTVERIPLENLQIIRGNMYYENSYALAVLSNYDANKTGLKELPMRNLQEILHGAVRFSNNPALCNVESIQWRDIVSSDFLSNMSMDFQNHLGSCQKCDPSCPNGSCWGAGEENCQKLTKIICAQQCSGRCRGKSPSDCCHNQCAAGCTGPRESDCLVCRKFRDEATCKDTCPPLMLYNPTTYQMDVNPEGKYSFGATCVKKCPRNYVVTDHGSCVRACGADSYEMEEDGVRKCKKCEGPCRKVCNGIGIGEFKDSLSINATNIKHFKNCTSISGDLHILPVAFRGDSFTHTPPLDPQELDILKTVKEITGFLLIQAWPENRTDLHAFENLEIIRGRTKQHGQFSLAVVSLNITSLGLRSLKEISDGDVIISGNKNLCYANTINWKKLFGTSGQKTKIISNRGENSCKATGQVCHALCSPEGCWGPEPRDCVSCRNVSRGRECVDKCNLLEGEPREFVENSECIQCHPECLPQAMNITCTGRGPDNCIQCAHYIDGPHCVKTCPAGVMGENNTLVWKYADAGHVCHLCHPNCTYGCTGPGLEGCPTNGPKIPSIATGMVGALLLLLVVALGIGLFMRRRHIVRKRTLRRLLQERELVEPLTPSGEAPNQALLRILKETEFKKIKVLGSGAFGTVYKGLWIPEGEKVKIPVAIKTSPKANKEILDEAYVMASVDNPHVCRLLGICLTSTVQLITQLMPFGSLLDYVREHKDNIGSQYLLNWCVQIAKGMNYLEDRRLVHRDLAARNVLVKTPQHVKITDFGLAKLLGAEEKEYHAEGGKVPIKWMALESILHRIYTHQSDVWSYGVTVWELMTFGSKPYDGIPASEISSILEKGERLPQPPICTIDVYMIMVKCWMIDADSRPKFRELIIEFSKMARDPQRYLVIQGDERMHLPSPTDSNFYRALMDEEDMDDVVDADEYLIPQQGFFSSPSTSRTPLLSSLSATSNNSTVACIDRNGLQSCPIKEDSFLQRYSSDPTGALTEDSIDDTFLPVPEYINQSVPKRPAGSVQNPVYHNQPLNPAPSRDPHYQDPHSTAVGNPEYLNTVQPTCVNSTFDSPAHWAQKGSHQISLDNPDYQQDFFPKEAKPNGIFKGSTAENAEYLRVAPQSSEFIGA
EGFR (L858R), sequence (P00533 25-1210 L858R): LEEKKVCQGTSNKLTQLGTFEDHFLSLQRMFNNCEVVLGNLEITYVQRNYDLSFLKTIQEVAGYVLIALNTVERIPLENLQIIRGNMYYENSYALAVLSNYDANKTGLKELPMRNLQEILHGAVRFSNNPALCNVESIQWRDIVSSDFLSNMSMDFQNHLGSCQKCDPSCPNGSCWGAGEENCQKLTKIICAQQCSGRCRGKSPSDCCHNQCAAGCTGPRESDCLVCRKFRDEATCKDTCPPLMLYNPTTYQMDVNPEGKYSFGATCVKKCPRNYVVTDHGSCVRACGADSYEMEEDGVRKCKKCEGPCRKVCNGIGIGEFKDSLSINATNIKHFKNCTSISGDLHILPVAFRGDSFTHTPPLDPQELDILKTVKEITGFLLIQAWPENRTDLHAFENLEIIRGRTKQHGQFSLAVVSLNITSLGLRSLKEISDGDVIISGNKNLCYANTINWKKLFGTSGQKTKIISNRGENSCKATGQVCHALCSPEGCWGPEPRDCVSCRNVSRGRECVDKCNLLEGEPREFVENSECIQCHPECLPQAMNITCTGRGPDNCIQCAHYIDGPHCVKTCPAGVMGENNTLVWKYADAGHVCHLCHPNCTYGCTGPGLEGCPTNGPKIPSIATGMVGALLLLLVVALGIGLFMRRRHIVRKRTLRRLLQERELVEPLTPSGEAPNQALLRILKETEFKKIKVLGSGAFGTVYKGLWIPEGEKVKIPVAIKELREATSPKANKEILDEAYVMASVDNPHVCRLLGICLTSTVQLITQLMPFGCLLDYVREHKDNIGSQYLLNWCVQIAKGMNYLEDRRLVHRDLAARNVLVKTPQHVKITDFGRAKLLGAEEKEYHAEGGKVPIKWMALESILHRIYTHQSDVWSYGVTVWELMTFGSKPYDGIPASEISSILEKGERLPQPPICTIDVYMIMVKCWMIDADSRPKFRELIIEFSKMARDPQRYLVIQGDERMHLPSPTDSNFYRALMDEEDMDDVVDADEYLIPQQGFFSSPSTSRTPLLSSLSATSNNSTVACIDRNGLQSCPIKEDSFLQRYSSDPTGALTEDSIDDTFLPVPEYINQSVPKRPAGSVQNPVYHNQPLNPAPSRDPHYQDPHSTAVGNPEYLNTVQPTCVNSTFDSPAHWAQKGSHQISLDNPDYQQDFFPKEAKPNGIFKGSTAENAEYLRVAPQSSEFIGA
T3 sequence (P00533 with tags, fused parts or gaps DEL746-750): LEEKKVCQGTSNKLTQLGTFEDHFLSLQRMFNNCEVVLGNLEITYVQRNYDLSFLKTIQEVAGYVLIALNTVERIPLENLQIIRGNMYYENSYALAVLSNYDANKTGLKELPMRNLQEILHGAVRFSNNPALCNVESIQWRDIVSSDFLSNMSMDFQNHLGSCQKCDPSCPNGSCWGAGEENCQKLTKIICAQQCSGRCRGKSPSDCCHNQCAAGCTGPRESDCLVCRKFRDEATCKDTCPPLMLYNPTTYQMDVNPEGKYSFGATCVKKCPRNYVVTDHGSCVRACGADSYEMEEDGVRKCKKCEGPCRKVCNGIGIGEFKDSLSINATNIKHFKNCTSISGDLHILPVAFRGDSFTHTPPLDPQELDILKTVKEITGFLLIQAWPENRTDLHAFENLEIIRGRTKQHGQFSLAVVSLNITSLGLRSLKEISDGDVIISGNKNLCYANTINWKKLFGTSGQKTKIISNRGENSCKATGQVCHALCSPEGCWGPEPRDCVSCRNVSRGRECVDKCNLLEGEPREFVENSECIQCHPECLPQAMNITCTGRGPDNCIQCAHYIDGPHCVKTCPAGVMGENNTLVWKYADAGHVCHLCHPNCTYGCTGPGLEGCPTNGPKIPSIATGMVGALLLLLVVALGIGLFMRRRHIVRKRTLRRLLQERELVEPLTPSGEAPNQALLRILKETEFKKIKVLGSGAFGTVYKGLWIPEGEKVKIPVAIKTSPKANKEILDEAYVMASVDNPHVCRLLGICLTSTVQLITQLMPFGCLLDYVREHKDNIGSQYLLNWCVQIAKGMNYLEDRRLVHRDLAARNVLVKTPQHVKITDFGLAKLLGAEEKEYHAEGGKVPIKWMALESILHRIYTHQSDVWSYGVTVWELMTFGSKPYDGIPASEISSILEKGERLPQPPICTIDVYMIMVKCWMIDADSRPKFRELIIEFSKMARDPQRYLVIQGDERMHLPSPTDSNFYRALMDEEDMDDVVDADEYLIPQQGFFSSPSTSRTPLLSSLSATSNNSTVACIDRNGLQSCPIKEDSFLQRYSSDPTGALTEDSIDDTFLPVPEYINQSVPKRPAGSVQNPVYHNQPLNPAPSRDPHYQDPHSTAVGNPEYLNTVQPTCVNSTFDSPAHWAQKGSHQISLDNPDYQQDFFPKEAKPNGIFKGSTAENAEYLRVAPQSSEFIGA

With `CCOc1nn([C@@H](C)CO)c2c1/C=C/c1n[nH]c3cnc(cc13)-c1c(C)nn(C)c1OC[C@H](C)N(CC)C2` [Ex. 25, (2S)-2-[(11S,17E)-16-ethoxy-12-ethyl-6,8,11-trimethyl-2,8,10,11,12,13-hexahydro-14H-5,3-(azenometheno)tripyrazolo[3,4-f:3′,4′-j:4″,3″-n][1,4]oxazacyclopentadecin-14-yl]propan-1-ol], the IC50 was determined as 1.93 nM in [1]; 0.51 nM in [2]; 17.9 nM in [3]; 1.02 nM in [4]; 1.24 nM in experiment [5]; 1.39 nM in [6]. Besides, the IC50 was determined as 1.88 nM in [7]; 0.51 nM in [8]; 0.46 nM in experiment [9]; 0.13 nM in [10]; 1.23 nM in experiment [11]; 2.97 nM in [12]. Also, the IC50 in experiment [13] is 10.3 nM; in [14] it was 0.55 nM; in experiment [15], 0.63 nM; in experiment [16] it was 0.85 nM.
With `CCOc1nn(CCO)c2c1/C=C/c1n[nH]c3c(C)nc(cc13)-c1cnn(C)c1O[C@@H](C)CN(CC)C2` [Ex. 28, 2-[(10S,17E)-16-ethoxy-12-ethyl-8,10,20-trimethyl-2,8,10,11,12,13-hexahydro-14H-5,3-(azenometheno)tripyrazolo[3,4-f:3′,4′-j:4″,3″-n][1,4]oxazacyclopentadecin-14-yl]ethan-1-ol], the IC50 in [1] was 3 nM; in experiment [2], 0.41 nM; in [3] it was 52.8 nM; in experiment [4] it was 0.85 nM; in [5], 14.4 nM; in experiment [6], 0.46 nM. Further, the IC50 came out at 1.99 nM in experiment [7]; 0.37 nM in experiment [8]; 2.33 nM in experiment [9]; 2.47 nM in experiment [10]; 1.23 nM in [11]; 16.8 nM in experiment [12]. The IC50 in experiment [13] was 33 nM; in [14] it was 1.03 nM; in experiment [15], 1.16 nM; in [16], 1.71 nM.
In the case of `CCOc1nn(CCO)c2c1/C=C/c1n[nH]c3cnc(cc13)-c1c(C)nn(C)c1O[C@H](C)CN(C(C)C)C2` [Ex. 1, 2-[(10R,17E)-16-ethoxy-6,8,10-trimethyl-12-(propan-2-yl)-2,8,10,11,12,13-hexahydro-14H-5,3-(azenometheno)tripyrazolo[3,4-f:3′,4′-j:4″,3″-n][1,4]oxazacyclopentadecin-14-yl]ethan-1-ol], the IC50 was determined as 3.01 nM in experiment [1]; 0.99 nM in [2]; 19.1 nM in experiment [3]; 1.54 nM in [4]; 3.09 nM in experiment [5]; 1.84 nM in [6]. In addition, the IC50 turned out to be 1.11 nM in experiment [7]; 1.24 nM in [8]; 0.68 nM in experiment [9]; 0.41 nM in experiment [10]; 1.51 nM in experiment [11]; 4.66 nM in [12]. In addition, the IC50 in [13] came to 28.6 nM; in [14] it was 1.13 nM; in [15] it was 1.7 nM; in [16] it was 1.57 nM.
On to `CC(C)Oc1nn(CCO)c2c1/C=C/c1n[nH]c3cnc(cc13)-c1cnn(C)c1O[C@H](C)CN(C(C)C)C2` [Ex. 3, 2-[(10R,17E)-8,10-dimethyl-12-(propan-2-yl)-16-[(propan-2-yl)oxy]-2,8,10,11,12,13-hexahydro-14H-5,3-(azenometheno)tripyrazolo[3,4-f:3′,4′-j:4″,3″-n][1,4]oxazacyclopentadecin-14-yl]ethan-1-ol], for which the IC50 in experiment [1] was 6.43 nM; in experiment [2] it was 0.85 nM; in experiment [3], 36.5 nM; in experiment [4] it was 1.56 nM; in experiment [5], 14.7 nM; in experiment [6], 1.33 nM. For the same molecule, the IC50 is 1.5 nM in experiment [7]; 1.27 nM in experiment [8]; 4.42 nM in experiment [9]; 1.3 nM in experiment [10]; 3.8 nM in experiment [11]; 55.4 nM in experiment [12]. Further, the 50% inhibitory concentration (IC50) came out at 29.6 nM in experiment [13], 1.83 nM in [14], 4.51 nM in experiment [15] and 1.81 nM in [16].
On to `CCOc1nn(CCO)c2c1/C=C/c1n[nH]c3cnc(cc13)-c1c(C)nn(C)c1O[C@H](C)CN(CC)C2` [Ex. 17, 2-[(10R,17E)-16-ethoxy-12-ethyl-6,8,10-trimethyl-2,8,10,11,12,13-hexahydro-14H-5,3-(azenometheno)tripyrazolo[3,4-f:3′,4′-j:4″,3″-n][1,4]oxazacyclopentadecin-14-yl]ethan-1-ol], for which the half-inhibitory concentration (IC50) in experiment [1] was determined as 2.63 nM; in experiment [2] it was 2.37 nM; in experiment [3], 14.3 nM; in experiment [4], 1 nM; in [5], 1.85 nM; in experiment [6], 0.97 nM. Further, the IC50 amounted to 0.52 nM in [7]; 0.31 nM in [8]; 0.37 nM in experiment [9]; 0.22 nM in experiment [10]; 0.59 nM in experiment [11]; 2.01 nM in experiment [12]. For the same molecule, the half-inhibitory concentration (IC50) in experiment [13] came to 17.5 nM; in [14] it was 0.36 nM; in experiment [15], 0.34 nM; in [16], 1.14 nM.
With `Cc1nn(C)c2c1-c1cc3c(n[nH]c3cn1)/C=C/c1c(OCC#N)nn(CCO)c1CN(C)C[C@H](C)O2` [Ex. 22, {[(10S,17E)-14-(2-hydroxyethyl)-6,8,10,12-tetramethyl-2,10,11,12,13,14-hexahydro-8H-5,3-(azenometheno)tripyrazolo[3,4-f:3′,4′-j:4″,3″-n][1,4]oxazacyclopentadecin-16-yl]oxy}acetonitrile], the half-maximal inhibitory concentration (IC50) came to 6.81 nM in experiment [1]; 0.52 nM in [2]; 67.5 nM in experiment [3]; 1.27 nM in experiment [4]; 5.67 nM in experiment [5]; 0.73 nM in experiment [6]. Besides, the IC50 in experiment [7] is 1.45 nM; in experiment [8] it was 0.3 nM; in [9], 0.87 nM; in experiment [10] it was 0.56 nM; in experiment [11] it was 0.28 nM; in experiment [12], 7.12 nM. Further, the IC50 amounted to 19.8 nM in [13], 0.41 nM in experiment [14], 5.77 nM in experiment [15] and 4.39 nM in [16].

The values above are taken from US20260317344A1, “EGFR INHIBITORS FOR TREATING DISEASE” (BLOSSOMHILL THERAPEUTICS, INC., priority 2023, published 2026).
